The nature of data set [1]: Treatment of mild myocarditis / tachycardia in subjects. The format is in vivo, human. As to conditions: for Response of mild myocarditis: four subjects. The text has this: Rogers et. al. described an IRIS case which manifested in the form of fulminant myocarditis. […] All four subjects of the instant experiment had no previous heart condition and were started with the HC alone, but were given LDN after the first mortality had occurred.
They were turned down several times to be a participant in the herbal program because they refused to take their spouse for counseling. […] They were diagnosed with borderline cardiomegaly around one year after initially testing HIV positive, and developed tachycardia, but had no subjective complaint and never developed fever. We maintained them on Lanoxin 250 μg, which controlled their heart rate below 100 beats/minute, and also started them on LDN.

A short description of data set [2]: Clinical observation of adverse effects. It is filed as in vivo, human. As to conditions: 960 mg tablets daily. The procedure:
Patients were tested weekly for progress and toxicities. We then determined a dose which can be tolerated by most of the patients, and recruited more subjects. In a preferred embodiment, two HC's (one each, B.I.D), approximately equal to 500 mg of the active ingredients of U.S. Pat. No. 7,556,830 per day, are administered. However, adjustments must be made according to the body weight of the subject, and lesser or higher dosages of as low as 100 mg and as high as 1 g, can be deployed. As a majority of the patients' health improved, we progressively scheduled their appointments further apart, to once every two weeks, and then, on a monthly basis.

The test system of data set [3] is HIV. To be noted: LDN alone on HIV+ subjects; stated by Bihari; cited from earlier work.
For data set [4] the following is noted: cited from earlier work.

Take `C[C@H]1O[C@@H](O[C@H]2[C@@H](O)C[C@H](O[C@H]3[C@@H](O)C[C@H](O[C@H]4CC[C@@]5(C)[C@H](CC[C@@H]6[C@@H]5C[C@@H](O)[C@]5(C)[C@@H](C7=CC(=O)OC7)CC[C@]65O)C4)O[C@@H]3C)O[C@@H]2C)C[C@H](O)[C@@H]1O` [digoxin]: the “Response of mild myocarditis” value in data set [1] was “responded promptly”. Besides, the Heart rate entry in data set [1] (patient, tachycardia, 250 μg) was “below 100 beats/minute”.

With `NS(=O)(=O)c1cc(C(=O)O)c(NCc2ccco2)cc1Cl` [furosemide], the “Response of mild myocarditis” value in data set [1] was “responded promptly”.

For the molecule cotrimoxazole, in data set [2], the Bone marrow suppression entry is reported as “several patients developed bone marrow suppression”.

Consider `O=C1CC[C@@]2(O)[C@H]3Cc4ccc(O)c5c4[C@@]2(CCN3CC2CC2)[C@H]1O5` [Naltrexone, 17-(cyclopropylmethyl)-4,5α-epoxy-3,14-dihydroxymorphinan-6-one], for which the “Effect on CD4 count” value in data set [3] is reported as “does not increase CD4 count, but only maintains its level or delays its decrease”. Also, the Bioavailability in data set [4] is given as 5-40%.

Values taken from patent publication US8404284B2, “Medicinal and herbal composition and uses thereof” (priority 2010, dated 2013).
